This note sets out measurements from article PMC2654083 (The Journal of General Physiology, 2009).

Molecules are shown by their SMILES.

For orientation: IC50 means the concentration needed to halve the response being measured.

This assay deals with KirBac1.1 (Burkholderia pseudomallei, UniProt P83698). As to the kind of experiment: biochemical.
Chain of KirBac1.1 (P83698 1-333): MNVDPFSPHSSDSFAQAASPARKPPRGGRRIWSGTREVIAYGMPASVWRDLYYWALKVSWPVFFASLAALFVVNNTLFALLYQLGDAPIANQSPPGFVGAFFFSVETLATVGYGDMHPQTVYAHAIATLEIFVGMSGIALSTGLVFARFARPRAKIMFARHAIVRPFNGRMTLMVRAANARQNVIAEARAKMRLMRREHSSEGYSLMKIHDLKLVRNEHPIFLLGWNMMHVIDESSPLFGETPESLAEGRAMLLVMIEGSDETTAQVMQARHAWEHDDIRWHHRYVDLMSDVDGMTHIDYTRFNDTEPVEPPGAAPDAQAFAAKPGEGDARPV

Regarding `NCCCNCCCCNCCCN` [spermine], half-maximal inhibition (IC50) required 800 µM.
